Data: patent US11512056B2 (Anhui New Star Pharmaceutical Development Co., Ltd, priority 2018, dated 2022)
pIC50: −log10 of the molar value. Where “and” joins values, the source holds several entries; their conditions need not be identical. Identical values can stand only once.

Assays:
platelets (rabbit blood) = assay: Inhibition of platelet aggregation in vitro (rabbit blood), ADP-induced, turbidimetric; format: cell-based, New Zealand white rabbits; settings: Oryctolagus cuniculus, rabbit PRP, ADP final concentration 10 μM
From the text: Blood was collected from New Zealand white rabbits (body weight 1-1.5 kg). After the animal was anesthetized with 10% chloral hydrate, the animal was placed supinely on the rabbit board, precordial hair was cut off, and the skin was disinfected with iodine and alcohol. Touch with left hand the 3rd to 4th intercostal space on the left edge of the sternum. Chose the most obvious place for the puncture point. Held the syringe in right hand and insert the needle into the chest cavity. Inserted the needle into the heart and then draw out the blood when feel the heart beating through the needle. […] assay system with a total volume of 300 μL, that is, 280 μL of diluted PRP was taken and placed in a turbidimetric tube, and was incubated with 10 μL of drug or solvent control at 37° C. for 5 minutes, and then 10 μL of different inducers such ADP (final concentration 10 μM) were added to determine the maximum platelet aggregation rate within 5 minutes. Repeation was taken at least three times […].
Platelet-rich plasma (PRP) was obtained by centrifuging blood at 1200 rpm for 10 minutes, and platelet aggregation was measured as described above. […] The platelet density in PRP is counted with a hemocytometer and diluted with platelet-poor plasma (PPP). […]

human platelets [1] = assay: Collagen-induced aggregation of human platelets (PRP, turbidimetric); format: cell-based
Procedure: Volunteers' whole blood was drawn from venous blood with 1:6 dextro-citrate ACD (85 mmol/L sodium citrate, 71.38 mmol/L citrate, 27.78 mmol/L glucose) for anticoagulation, and centrifuged at 300 g at room temperature for 10 Minutes, separate platelet rich plasma (PRP).
The turbidimetric platelet aggregation test was performed on the Chrono-Log Company's dual-channel optical platelet aggregation instrument. The speed of the icon recorder was set to 1 cm/min, and the aggregation curve was recorded. First, the platelet aggregator was preheated to 37° C., and 400 μL platelet suspension and stir bar were added to the turbidity tube, PPP was used as a reference, and traced the baseline under constant magnetic stirring at 37° C. After the baseline was stable, with the experiment plan, different concentrations of antagonist or other reagents were added to treat platelets for 2 minutes, and then inducer collagen was added to observe and record changes in the aggregation curve.
The platelet aggregation rate of the solvent control group was set to be 100%. The inhibitory effects of the compounds on normal human platelet aggregation induced by collagen at different concentrations were as follows: […]

human platelets [2] = assay: ADP-induced aggregation of human platelets (PRP, turbidimetric); format: cell-based; settings: for inhibition at 0.005 µM: concentration 0.005 μM; for inhibition at 0.01 µM: concentration 0.01 μM; for inhibition at 5 µM: concentration 5 μM; for inhibition at 10 µM: concentration 10 μM; for pIC50: read-out: IC50 of compound on ADP-induced platelet aggregation rate
Procedure: Volunteers' whole blood was drawn from venous blood with 1:6 dextro-citrate ACD (85 mmol/L sodium citrate, 71.38 mmol/L citrate, 27.78 mmol/L glucose) for anticoagulation, and centrifuged at 300 g at room temperature for 10 minutes, platelet rich plasma (PRP) was separated.
(§1) The turbidimetric platelet aggregation test was performed on the Chrono-Log Company's dual-channel optical platelet aggregation instrument. The speed of the icon recorder was set to 1 cm/min, and the aggregation curve was recorded. First, the platelet aggregator was preheated to 37° C., 400 μL platelet suspension and stir bar were added to the turbidity tube, use PPP as a reference, and traced the baseline under constant magnetic stirring at 37° C. After the baseline was stable, with experiment plan, different concentrations of antagonists or other reagents were added to treat platelets for 2 minutes, and then the inducer ADP was added to observe and record changes in the aggregation curve.

arterial thrombosis = assay: SD male rat arteriovenous short circuit thrombosis model (A-V shunt); format: in vivo, male SD rats
Procedure: Cut the surgical wire with a length of 6 cm, weigh and recorded it on an analytical balance (about 2 mg dry weight), and placed it in a thick polyethylene tube with a length of 6 cm. Inserted a thin tube at each end of the thick tube spare. Male SD rats were intragastrically administered for 4 hours, anesthetized with pentobarbital 60 mg/kg, separated the common carotid artery and common jugular vein, connected the arteries and veins with the above polyethylene tube, opened the blood flow for 15 minutes, removed the surgical line and weighed (WW).

human platelets [3] = assay: Thrombin-induced human platelet aggregation (PRP, turbidimetric); format: cell-based; settings: for inhibition at 0.003 µM: concentration 0.003 μM; for pIC50: read-out: IC50 on thrombin-induced platelet aggregation rate
Procedure: Volunteers' whole blood was drawn from venous blood with 1:6 D-citrate ACD (85 mmol/L sodium citrate, 71.38 mmol/L citrate, 27.78 mmol/L glucose) for anticoagulation, and centrifuged at 300 g at room temperature for 10 minutes, platelet rich plasma (PRP) was separated.
as §1, with “C., and” for “C.,”, “tube,” for “tube, use”, “PPP was used” for “PPP”, “baseline is” for “baseline was”, “with the” for “with”

[4] = 1 μg/ml collagen, concentration 0.01 μM, 0.01 µM
[5] = Homo sapiens, Platelet, 1 μg/ml collagen, concentration 3 μM, read-out: Aggregation inhibition rate %
[6] = Homo sapiens, Platelet, column 1, read-out: IC50 of compound on collagen-induced platelet aggregation rate
[7] = Homo sapiens, Platelet, column 2, read-out: IC50 of compound on collagen-induced platelet aggregation rate
[8] = Homo sapiens, Platelet, column 3, read-out: IC50 of compound on collagen-induced platelet aggregation rate
[9] = 10 μM ADP, concentration 0.1 μM
[10] = Homo sapiens, Platelet, 10 μM ADP, read-out: Aggregation inhibition rate %
[11] = Homo sapiens, Platelet, 10 μM ADP, concentration 3 μM, read-out: Aggregation inhibition rate %
[12] = Homo sapiens, Platelet, column 1
[13] = Homo sapiens, Platelet, column 2
[14] = Homo sapiens, Platelet, column 3
[15] = Homo sapiens, Platelet, 0.5 U/ml thrombin, read-out: Aggregation inhibition rate %
[16] = Homo sapiens, Platelet, 0.5 U/ml thrombin, concentration 0.01 μM, read-out: Aggregation inhibition rate %
[17] = Homo sapiens, Platelet, 0.5 U/ml thrombin, concentration 20 μM, read-out: Aggregation inhibition rate %

CC1CC(=O)NN=C1c1ccc(NC(=N)N)cc1 (stereo not drawn) [No. 1, 1-(4-(4-methyl-6-oxo-1,4,5,6-tetrahydropyridazin-3-yl)phenyl)guanidine]
pIC50 (platelets (rabbit blood)): 6.71
inhibitory effect on platelet aggregation induced by collagen (human platelets [1]; 1 μg/ml collagen): significant inhibitory effect
Aggregation inhibition rate % (human platelets [1]; [4]): 8.96% and 10.94%
Aggregation inhibition rate % (human platelets [1]; 1 μg/ml collagen, concentration 0.3 μM, 0.3 µM): 79.10% and 44.78% and 54.69%
Aggregation inhibition rate % (human platelets [1]; 1 μg/ml collagen, concentration 1 μM, 1 µM): 80.59% and 95.31%
inhibition at 0.003 µM (human platelets [1]; Homo sapiens, Platelet, 1 μg/ml collagen, concentration 0.003 μM, read-out: Aggregation inhibition rate %): 5.97%
inhibition at 0.01 µM (human platelets [1]; Homo sapiens, Platelet, 1 μg/ml collagen, concentration 0.01 μM, read-out: Aggregation inhibition rate %): 10.4%
inhibition at 1 µM (human platelets [1]; Homo sapiens, Platelet, 1 μg/ml collagen, concentration 1 μM, read-out: Aggregation inhibition rate %): 95.9%
inhibition at 3 µM (human platelets [1]; [5]): 100%
pIC50 (human platelets [1]; Homo sapiens, Platelet, 1 μg/ml collagen, read-out: IC50 on platelet aggregation induced by collagen): 6.80
pIC50 (human platelets [1]; [6]): 7.02
pIC50 (human platelets [1]; [7]): 6.63
pIC50 (human platelets [1]; [8]): 6.84
Aggregation inhibition rate % (human platelets [2]; 10 μM ADP, concentration 0.03 μM, listed as Compound No.1): 17.39%
Aggregation inhibition rate % (human platelets [2]; 10 μM ADP, concentration 0.03 μM, listed as No.1 Compound): 49.01%
Aggregation inhibition rate % (human platelets [2]; [9]): 37.68%
Aggregation inhibition rate % (human platelets [2]; 10 μM ADP, concentration 0.3 μM, listed as Compound No.1): 39.13%
Aggregation inhibition rate % (human platelets [2]; 10 μM ADP, concentration 0.3 μM, listed as No.1 Compound): 62.74%
Aggregation inhibition rate % (human platelets [2]; 10 μM ADP, concentration 1 μM, listed as Compound No.1): 42.02%
Aggregation inhibition rate % (human platelets [2]; 10 μM ADP, concentration 1 μM, listed as No.1 Compound): 66.67%
Aggregation inhibition rate % (human platelets [2]; 10 μM ADP, concentration 3 μM): 51.88%
inhibition at 0.005 µM (human platelets [2]; [10]): 2.99%
inhibition at 0.01 µM (human platelets [2]; [10]): 8.69%
inhibition at 0.1 µM (human platelets [2]; Homo sapiens, Platelet, 10 μM ADP, concentration 0.1 μM, read-out: Aggregation inhibition rate %): 43.1%
inhibition at 3 µM (human platelets [2]; [11]): 71.6%
inhibition at 5 µM (human platelets [2]; [10]): 81.4%
inhibition at 10 µM (human platelets [2]; [10]): 95.1%
pIC50 (human platelets [2]; [12]): 7.01
pIC50 (human platelets [2]; [13]): 5.97
pIC50 (human platelets [2]; [14]): 6.81
Thrombus wet weight (arterial thrombosis; 10 mg/kg intragastric, 4 hours before, blood flow 15 minutes, individual values): 11.7 mg and 11.5 mg and 12.1 mg
weight of arterial thrombus in rats (arterial thrombosis; intragastric administration): significantly reduced
Aggregation inhibition rate % (human platelets [3]; 0.5 U/ml thrombin, concentration 0.01 μM, 0.01 µM): 2.81%
Aggregation inhibition rate % (human platelets [3]; 0.5 U/ml thrombin, concentration 0.1 μM, 0.1 µM): 46.03% and 40.98% and 65.21%
Aggregation inhibition rate % (human platelets [3]; 0.5 U/ml thrombin, concentration 0.3 μM, 0.3 µM): 80.95% and 89.85%
Aggregation inhibition rate % (human platelets [3]; 0.5 U/ml thrombin, concentration 1 μM, 1 µM): 95.83% and 97.33%
inhibition at 0.003 µM (human platelets [3]; [15]): 0%
inhibition at 0.01 µM (human platelets [3]; [16]): 3.08%
inhibition at 0.3 µM (human platelets [3]; Homo sapiens, Platelet, 0.5 U/ml thrombin, concentration 0.3 μM, read-out: Aggregation inhibition rate %): 71.4%
inhibition at 1 µM (human platelets [3]; Homo sapiens, Platelet, 0.5 U/ml thrombin, concentration 1 μM, read-out: Aggregation inhibition rate %): 85.7%
inhibition at 3 µM (human platelets [3]; Homo sapiens, Platelet, 0.5 U/ml thrombin, concentration 3 μM, read-out: Aggregation inhibition rate %): 100%
inhibition at 10 µM (human platelets [3]; Homo sapiens, Platelet, 0.5 U/ml thrombin, concentration 10 μM, read-out: Aggregation inhibition rate %): 100%
inhibition at 20 µM (human platelets [3]; [17]): 100%
pIC50 (human platelets [3]; [12]): 6.71
pIC50 (human platelets [3]; [13]): 6.85
pIC50 (human platelets [3]; [14]): 7.11

CCCSc1nc(N[C@@H]2C[C@H]2c2ccc(F)c(F)c2)c2nnn([C@@H]3C[C@H](OCCO)[C@@H](O)[C@H]3O)c2n1 [Ticagrelor, reference compound]
Aggregation inhibition rate % (human platelets [1]; 1 μg/ml collagen, concentration 0.003 μM, 0.003 µM): 4.23% and 1.45%
Aggregation inhibition rate % (human platelets [1]; [4]): 8.69% and 2.98% and 9.86%
Aggregation inhibition rate % (human platelets [1]; 1 μg/ml collagen, concentration 0.03 μM, 0.03 µM): 8.95% and 15.49%
Aggregation inhibition rate % (human platelets [1]; 1 μg/ml collagen, concentration 3 μM, 3 µM): 66.17% and 64.78%
Aggregation inhibition rate % (human platelets [1]; 1 μg/ml collagen, concentration 10 μM, 10 µM): 75% and 92.95%
inhibition at 0.03 µM (human platelets [1]; Homo sapiens, Platelet, 1 μg/ml collagen, concentration 0.03 μM, read-out: Aggregation inhibition rate %): 13%
inhibition at 3 µM (human platelets [1]; [5]): 75.4%
inhibition at 10 µM (human platelets [1]; Homo sapiens, Platelet, 1 μg/ml collagen, concentration 10 μM, read-out: Aggregation inhibition rate %): 82.6%
inhibition at 20 µM (human platelets [1]; Homo sapiens, Platelet, 1 μg/ml collagen, concentration 20 μM, read-out: Aggregation inhibition rate %): 100%
pIC50 (human platelets [1]; [6]): 6.05
pIC50 (human platelets [1]; [7]): 6.27
pIC50 (human platelets [1]; [8]): 6.04
Aggregation inhibition rate % (human platelets [2]; 10 μM ADP, concentration 0.03 μM): 13.69%
Aggregation inhibition rate % (human platelets [2]; [9]): 15.06%
Aggregation inhibition rate % (human platelets [2]; 10 μM ADP, concentration 0.3 μM): 20.54%
Aggregation inhibition rate % (human platelets [2]; 10 μM ADP, concentration 1 μM): 57.53%
Aggregation inhibition rate % (human platelets [2]; 10 μM ADP, concentration 3 μM): 86.30%
inhibition at 0.005 µM (human platelets [2]; [10]): 0%
inhibition at 0.01 µM (human platelets [2]; [10]): 4.11%
inhibition at 3 µM (human platelets [2]; [11]): 100%
inhibition at 5 µM (human platelets [2]; [10]): 100%
inhibition at 10 µM (human platelets [2]; [10]): 100%
pIC50 (human platelets [2]; [12]): 7.14
pIC50 (human platelets [2]; [13]): 6.02
pIC50 (human platelets [2]; [14]): 6.58
Aggregation inhibition rate % (human platelets [3]; 0.5 U/ml thrombin, concentration 3 μM, 3 µM): 69.84% and 49.33% and 92.53%
Aggregation inhibition rate % (human platelets [3]; 0.5 U/ml thrombin, concentration 10 μM, 10 µM): 80.95% and 55.41%
Aggregation inhibition rate % (human platelets [3]; 0.5 U/ml thrombin, concentration 20 μM, 20 µM): 81.33%
inhibition at 0.003 µM (human platelets [3]; [15]): 0%
inhibition at 0.01 µM (human platelets [3]; [16]): 0%
inhibition at 20 µM (human platelets [3]; [17]): 95.2%
pIC50 (human platelets [3]; [12]): 6.07
pIC50 (human platelets [3]; [13]): 5.40
pIC50 (human platelets [3]; [14]): 6.79

CCC(=O)NC(=N)Nc1ccc(C2=NNC(=O)CC2C)cc1 (stereo not drawn)
pIC50 (platelets (rabbit blood)): 6.48
